US8501755B2, “Tetrahydropyridothienopyrimidine compounds and methods of use thereof” (Bayer Intellectual Property GmbH, priority 2006, dated 2013)

Experiments:
Assay type in all cases: cell-based
N87 = experiment: In vitro tumor cell proliferation assay (Cell Titer-Glo) in N87 cells; conditions: N87 human gastric carcinoma overexpressing HER2 and HER1; 72 hours exposure; read-out: IC50, activities in N87 cell lines
From the text: (§1) The tumor cell proliferation assay used to test the compounds of the present invention involves a readout called Cell Titer-Glow® Luminescent Cell Viability Assay developed by Promega® (Cunningham, BA “A Growing Issue: Cell Proliferation Assays, Modern kits ease quantification of cell growth” The Scientist 2001, 15(13), 26, and Crouch, S P et al., “The use of ATP bioluminescence as a measure of cell proliferation and cytotoxicity” Journal of Immunological Methods 1993, 160, 81-88), that measures inhibition of cell proliferation. Generation of a luminescent signal corresponds to the amount of ATP present, which is directly proportional to the number of metabolically active (proliferating) cells. A431 cells [human epidermoid carcinoma, ATCC # HTB-20, overexpressing HER1 (EGFR, ErbB1)] and N87 [human gastric carcinoma, ATCC # CRL-1555, overexpressing HER2 (ErbB2) and HER1 (EGFR, ErbB1)] were plated at a density of 2.5×10^3 cells/well in 96 well black-clear bottom tissue culture plates in RPMI media with 10% Fetal Bovine Serum and incubated at 37° C. Twenty-four hours later, test compounds are added at a final concentration range from as high 100 μm to as low […] depend on the activities of the tested compounds in serial dilutions at a final DMSO concentration of 0.1%. Cells were incubated for 72 hours at 37° C. in complete growth media after addition of the test compound. After 72 hours of drug exposure, the plates were equilibrated to room temperature for approximately 30 min. Then, using a Promega Cell Titer Glo Luminescent® assay kit, lysis buffer containing 100 microliters of the enzyme luciferase and its substrate, luciferin mixture, was added to each well. The plates were mixed for 2 min on orbital shaker to ensure cell lysis and incubated for 10 min at room temperature to stabilize luminescence signal. The samples were read on VICTOR2 using Luminescence protocol, and analyzed with Analyze5 software to generate IC50 values.

A431 cells = experiment: In vitro tumor cell proliferation assay (Cell Titer-Glo) in A431 cells; conditions: Homo sapiens, A-431, 72 h, A431 human epidermoid carcinoma overexpressing HER1; 72 hours exposure; read-out: IC50, activities in A431 cell lines
From the text: as §1

H1975 cells = experiment: In vitro tumor cell proliferation assay (Cell Titer-Glo) in H1975 cells; conditions: NCI-H1975; H1975 human NSCLC expressing mutant HER1 (L858R,T790M); 72 hours exposure; read-out: IC50, activities in H 1975 cell lines
From the text: The tumor cell proliferation assay used to test the compounds of the present invention involves a readout called Cell Titer-Glow® Luminescent Cell Viability Assay developed by Promega® (Cunningham, BA “A Growing Issue: Cell Proliferation Assays, Modern kits ease quantification of cell growth” The Scientist 2001, 15(13), 26, and Crouch, S P et al., “The use of ATP bioluminescence as a measure of cell proliferation and cytotoxicity” Journal of Immunological Methods 1993, 160, 81-88), that measures inhibition of cell proliferation. Generation of a luminescent signal corresponds to the amount of ATP present, which is directly proportional to the number of metabolically active (proliferating) cells.
H1975 cells [human non small cell lung carcinoma, ATCC # CRL-5908, expressing mutant HER1 [(EGFR, ErbB1)(L858R,T790M] were plated at a density of 3×10^3 cells/well in 96 well black-clear bottom tissue culture plates in RPMI media with 10% Fetal Bovine Serum and incubated at 37° C. Twenty-four hours later, test compounds are added at a final concentration range from as high 10 uM to as low 64 pM depending on the activities of the tested compounds in serial dilutions at a final DMSO concentration of 0.1%. Cells were incubated for 72 hours at 37° C. in complete growth media after addition of the test compound. After 72 hours of drug exposure, the plates were equilibrated to room temperature for approximately 30 min. Then, using a Promega Cell Titer Glo Luminescent® assay kit, lysis buffer containing 100 microliters of the enzyme luciferase and its substrate, luciferin mixture, was added to each well. The plates were mixed for 2 min on orbital shaker to ensure cell lysis and incubated for 10 min at room temperature to stabilize luminescence signal. The samples were read on VICTOR2 using Luminescence protocol, and analyzed with Analyze5 software to generate IC50 values.

Structure (SMILES) | IC50 (N87) [nM] | IC50 (A431 cells) [nM] | IC50 (H1975 cells) [nM]
Cc1cccc(COc2ccc(Nc3ncnc4sc5c(c34)CCN(C(=O)/C=C/CN3CCCC3)C5)cc2Cl)n1 [Example 78, N-{3-chloro-4-[(6-methylpyridin-2-yl)methoxy]phenyl}-7-[(2E)-4-pyrrolidin-1-ylbut-2-enoyl]-5,6,7,8-tetrahydropyrido [4′,3′:4,5]thieno[2,3-d]pyrimidin-4-amine] | < 200 | 1000 to 10000 | 1000 to 10000
CC(C)N(C)C/C=C/C(=O)N1CCc2c(sc3ncnc(Nc4cccc(Br)c4)c23)C1 [Example 189, N-(3-bromophenyl)-7-{(2E)-4-[isopropyl(methyl)amino]but-2-enoyl}-5,6,7,8-tetrahydropyrido [4′,3′:4,5]thieno[2,3-d]pyrimidin-4-amine] | < 200 | 200 to 1000 | 200 to 1000
CCN(C)C/C=C/C(=O)N1CCc2c(sc3ncnc(Nc4ccc(Cl)c(Cl)c4)c23)C1 [Example 190, N-(3,4-dichlorophenyl)-7-{(2E)-4-[ethyl(methyl)amino]but-2-enoyl}-5,6,7,8-tetrahydropyrido [4′,3:4,5]thieno[2,3-d]pyrimidin-4-amine] | < 200 | 200 to 1000 | 200 to 1000
CCN(CC)C/C=C/C(=O)N1CCc2c(sc3ncnc(Nc4ccc5c(ccn5Cc5ccccc5)c4)c23)C1 [Example 94, N-(1-benzyl-1H-indol-5-yl)-7-[(2E)-4-(diethylamino)but-2-enoyl]-5,6,7,8-tetrahydropyrido [4′,3′:4,5]thieno[2,3-d]pyrimidin-4-amine] | < 200 | 200 to 1000 | 200 to 1000
O=C(/C=C/CN1CCC(CCO)CC1)N1CCc2c(sc3ncnc(Nc4ccc(F)c(Cl)c4)c23)C1 [Example 57, 2-{1-[(2E)-4-{4-[(3-chloro-4-fluorophenyl)amino]-5,8-dihydropyrido [4′,3′:4,5]thieno[2,3-d]pyrimidin-7(6H)-yl}-4-oxobut-2-en-1-yl]piperidin-4-yl}ethanol] | < 200 | 1000 to 10000 | 200 to 1000
O=C(C#CCCN1CCCCC1)N1CCc2c(sc3ncnc(Nc4ccc(OCc5ccccn5)c(Cl)c4)c23)C1 [Example 132, N-[3-chloro-4-(pyridin-2-ylmethoxy)phenyl]-7-(5-piperidin-1-ylpent-2-ynoyl)-5,6,7,8-tetrahydropyrido[4′,3′:4,5]-thieno[2,3-d]pyrimidin-4-amine] | < 200 | 200 to 1000 | 200 to 1000
O=C(/C=C/CN1CCc2ccccc21)N1CCc2c(sc3ncnc(Nc4ccc(F)c(Cl)c4)c23)C1 [Example 38, N-(3-chloro-4-fluorophenyl)-7-[(2E)-4-(2,3-dihydro-1H-indol-1-yl)but-2-enoyl]-5,6,7,8-tetrahydropyrido [4′3′:4,5]thieno[2,3-d]pyrimidin-4-amine] | 200 to 5000 | 1000 to 10000 | 1000 to 10000
CCN(C)C/C=C/C(=O)N1CCc2c(sc3ncnc(Nc4ccc(OCc5cnccn5)c(Cl)c4)c23)C1 [Example 81, N-[3-chloro-4-(pyrazin-2-ylmethoxy)phenyl]-7-{(2E)-4-[ethyl(methyl)amino]but-2-enoyl}-5,6,7,8-tetrahydropyrido [4′,3′:4,5]thieno[2,3-d]pyrimidin-4-amine] | < 200 | 1000 to 10000 | 200 to 1000
CN(C/C=C/C(=O)N1CCc2c(sc3ncnc(Nc4ccc5c(ccn5Cc5ccccn5)c4)c23)C1)C(C)(C)C [Example 129] | < 200 | 200 to 1000 | < 200
C/C=C/C(=O)N1CCc2c(sc3ncnc(Nc4ccc(F)c(Cl)c4)c23)C1 [Example 23, 7-[(2E)-but-2-enoyl]-N-(3-chloro-4-fluorophenyl)-5,6,7,8-tetrahydropyrido [4′,3′:4,5]thieno[2,3-d]pyrimidin-4-amine] | 200 to 5000 | 1000 to 10000 | 1000 to 10000
CC(C)N(C)C/C=C/C(=O)N1CCc2c(sc3ncnc(Nc4ccc5c(cnn5Cc5ccccn5)c4)c23)C1 [Example 116, 7-{(2E)-4-[isopropyl(methyl)amino]but-2-enoyl}-N-[1-(pyridin-2-ylmethyl)-1H-indazol-5-yl]-5,6,7,8-tetrahydropyrido [4′,3′:4,5] thieno[2,3-d]pyrimidin-4-amine] | < 200 | 200 to 1000 | 200 to 1000
CN(C)C/C=C/C(=O)N1CCc2c(sc3ncnc(Nc4ccc(Cl)c(F)c4)c23)C1 [Example 180, N-(4-chloro-3-fluorophenyl)-7-[(2E)-4-(dimethylamino)but-2-enoyl]-5,6,7,8-tetrahydropyrido [4′,3′:4,5]thieno[2,3-d]pyrimidin-4-amine] | < 200 | 200 to 1000 | 1000 to 10000
Cc1cccc(COc2ccc(Nc3ncnc4sc5c(c34)CCN(C(=O)/C=C/CN3CCOCC3)C5)cc2Cl)n1 [Example 84, N-{3-chloro-4-[(6-methylpyridin-2-yl)methoxy]phenyl}-7-[(2E)-4-morpholin-4-ylbut-2-enoyl]-5,6,7,8-tetrahydropyrido [4′,3′:4,5]thieno[2,3-d]pyrimidin-4-amine] | < 200 | 1000 to 10000 | 1000 to 10000
CC(C)N(C)C/C=C/C(=O)N1CCc2c(sc3ncnc(Nc4ccc5c(cnn5Cc5ccccc5)c4)c23)C1 [Example 107, N-(1-benzyl-1H-indazol-5-yl)-7-{(2E)-4-[isopropyl(methyl)amino]but-2-enoyl}-5,6,7,8-tetrahydropyrido [4′,3′:4,5]thieno[2,3-d]pyrimidin-4-amine] | < 200 | < 200 | < 200
CC1CCCN(C/C=C/C(=O)N2CCc3c(sc4ncnc(Nc5ccc(OCc6ccccn6)c(Cl)c5)c34)C2)C1 (stereo not drawn) [Example 67, N-[3-chloro-4-(pyridin-2-ylmethoxy)phenyl]-7-[(2E)-4-(3-methylpiperidin-1-yl)but-2-enoyl]-5,6,7,8-tetrahydropyrido [4′,3′:4,5]thleno[2,3-d]pyrimidin-4-amine] | < 200 | 200 to 1000 | 200 to 1000
C=C(CN1CCOCC1)C(=O)N1CCc2c(sc3ncnc(Nc4ccc(OCc5cccc(F)c5)c(Cl)c4)c23)C1 [Example 146, N-{3-chloro-4-[(3-fluorobenzyl)oxy]phenyl}-7-[2-(morpholin-4-ylmethyl)acryloyl]-5,6,7,8-tetrahydropyrido [4′,3′:4,5]thieno[2,3-d]pyrimidin-4-amine] | < 200 | 1000 to 10000 | 1000 to 10000
CN(C/C=C/C(=O)N1CCc2c(sc3ncnc(Nc4ccc5c(cnn5Cc5ccccn5)c4)c23)C1)C(C)(C)C [Example 128, 7-{(2E)-4-[tert-butyl(methyl)amino]but-2-enoyl}-N-[1-(pyridin-2-ylmethyl)-1H-indazol-5-yl]-5,6,7,8-tetrahydropyrido [4′,3′:4,5]thieno[2,3-d]pyrimidin-4-amine] | < 200 | 200 to 1000 | 200 to 1000
CN(C)CC#CC(=O)N1CCc2c(sc3ncnc(Nc4ccc(OCc5ccccn5)c(Cl)c4)c23)C1 [Example 135, N-[3-chloro-4-(pyridin-2-ylmethoxy)phenyl]-7-[4-(dimethylamino)but-2-ynoyl]-5,6,7,8-tetrahydropyrido [4′,3′:4,5]thieno[2,3-d]pyrimidin-4-amine] | < 200 | 200 to 1000 | < 200
